Results published in patent US20120302954A1, “EXPANDABLE DEVICES COATED WITH A PACLITAXEL COMPOSITION” (priority 2011, published 2012).

How the values were obtained:
[1] = Percent drug content change of coated cobalt-chromium 18 mm stent over 0 to 12 weeks (FIG. 1); format: physicochemical; details: 0.02 weight percent BHT per total basecoat solids; 8 weeks and 12 weeks, ambient conditions (25° C.)
Source text: Referring to FIG. 1, there is illustrated in graphical format, the results of the same drug screening as described above with the solution applied to a cobalt-chromium, 18 mm stent. In this test, two sets of solution samples were utilized, one with sirolimus and polymer solution containing the antioxidant and one with sirolimus and polymer solution containing no antioxidant. The antioxidant utilized was 0.02 weight percent BHT per total basecoat solids. The test was utilized to determine the percent drug content change over a time period of 0 to 12 weeks under two conditions; namely, 40° C. with 75 percent relative humidity, and ambient conditions (25° C.).

[2] = Drug concentration in liquid formulations by liquid chromatography / HPLC; format: physicochemical
Source text: A series of liquid formulations were developed for the local or regional delivery of water insoluble compounds such as sirolimus and its analogs, including CCI-779, ABT-578 and everolimus, through weeping balloons and catheter injection needles. Sirolimus and its analogs are rapamycins. These liquid formulations increase the apparent solubility of the pharmacologically active but water insoluble compounds by two to four orders of magnitude as compared to the solubility limits of the compounds in water. These liquid formulations rely on the use of a very small amount of organic solvents such as Ethanol and a larger amount of safe amphiphilic (of or relating to a molecule having a polar, water soluble group attached to a non-polar, water insoluble […]) excipients such as polyethylene glycol (PEG 200, PEG 400) and vitamin E TPGS to enhance the solubility of the compounds. These liquid formulations of highly water insoluble compounds are stable and readily flowable at room temperature. Certain excipients, such as Vitamin E TPGS and BHT may be utilized to enhance the storage stability of sirolimus compounds through their anti-oxidation properties.
Table 7, shown below, summarizes the concentrations of the excipient, the co-solvents and the drug for four different liquid formulations. […]

[3] = Protocol: Table 9, shown below, summarizes a number of injectable liquid formulations of paclitaxel utilizing combinations of ethanol, PEG 400 and water. Specifically, the formulations set forth in Table 9 were made and analyzed for their concentrations of its various constituents. The concentrations are determined by liquid chromatography and are presented as weight by volume figures. The concentration of ethanol is preferably two or less percent so as to avoid ethanol becoming an active ingredient in the formulation.
Another aqueous liquid or injectable formulation of paclitaxel is made utilizing ethanol, PEG 400 and water, and ethanol, Vitamin E TPGS, PEG400 and water. In making the first formulation, 100 mg of paclitaxel is added to 400 μl of ethanol in a pre-weighed 20 ml scintillation vial. The mixture of paclitaxel and ethanol is vortexed and heated in a 60 degree C. bath for ten minutes. Once the drug is completely solubilized, 20 ml of PEG 400 is then added to make the final paclitaxel concentration 5 mg/ml. […] In a separate experiment, a series of 20 ml scintillation vials containing Vitamin E TPGS are heated or warmed up in a 50 degree C. water bath for ten minutes. Concurrently, distilled water is also warmed in a 50 degree C. water bath. […]

[4] = Sirolimus tissue concentration in porcine coronary arteries by LC-MS; format: in vivo; details: 50 mg/ml
Protocol: In accordance with a second experiment, the efficacy of a PTCA balloon coated with the 5 percent BHT solution was tested in a porcine injury model. The balloon coating formulation of sirolimus and BHT (5 percent BHT, w/w) was made according to the procedure described above. In total, three coating solutions of sirolimus and BHT (5 percent BHT, w/w) and one coating solution without BHT were prepared for the study. A standard CYPHER® Sirolimus-eluting Coronary Stent available from the Cordis Corporation was used as a control for the study. Both FIRE STAR® PTCA balloons (3.5 mm×20 mm, with total surface area of 220 mm^2) with hydrophilic treatment and the ones without a hydrophilic treatment were tested in the study. The final coating density of sirolimus and sirolimus loss during expansion were measured by HPLC. The tissue concentration in the porcine coronary arteries was measured by liquid chromatography-mass spectroscopy (LC-MS). The amount of intimal hyperplasia was determined by standard quantitative coronary angiography (QCA) at day 30.

Cc1cc(C(C)(C)C)c(O)c(C(C)(C)C)c1 [BHT, butylated hydroxytoluene]
percent drug content change (drug degradation) [1]: lessens drug degradation

CO[C@H]1C[C@@H]2CC[C@@H](C)[C@@](O)(O2)C(=O)C(=O)N2CCCC[C@H]2C(=O)O[C@H]([C@H](C)C[C@@H]2CC[C@@H](OC(=O)C(C)(CO)CO)[C@H](OC)C2)CC(=O)[C@H](C)/C=C(\C)[C@@H](O)[C@@H](OC)C(=O)[C@H](C)C[C@H](C)/C=C/C=C/C=C/1C [CCI-779]
concentration in the final solution (HPLC assay) ([2]; ethanol less than two percent, Vitamin E TPGS, water): 15000 µg/mL

CC(=O)O[C@H]1C(=O)[C@@]2(C)[C@H]([C@H](OC(=O)c3ccccc3)[C@]3(O)C[C@H](OC(=O)[C@H](O)[C@@H](NC(=O)c4ccccc4)c4ccccc4)C(C)=C1C3(C)C)[C@]1(OC(C)=O)CO[C@@H]1C[C@@H]2O [paclitaxel]
fold higher than the solubility in water [3]: about 1000 fold
concentration reached in true aqueous liquid formulations ([3]; PEG 400 / Vitamin E TPGS / ethanol / water): up to 2.5 mg/ml

CO[C@H]1C[C@@H]2CC[C@@H](C)[C@@](O)(O2)C(=O)C(=O)N2CCCC[C@H]2C(=O)O[C@H]([C@H](C)C[C@@H]2CC[C@@H](O)[C@H](OC)C2)CC(=O)[C@H](C)/C=C(\C)[C@@H](O)[C@@H](OC)C(=O)[C@H](C)C[C@H](C)/C=C/C=C/C=C/1C [Rapamycin, rapamycin]
concentration in the 4 mg/ml PEG 200 formulation relative to the solubility in water ([2]; PEG 200 excipient, ethanol and water co-solvents): four hundred to about one thousand
Sirolimus conc in artery tissue post-deploy ([4]; 20 min, hydrophilic coat No, Acetone/ethanol/water (50/40/10), BHT 5% (PKd)): 382 ± 190 ng sirolimus/mg tissue
Sirolimus conc in artery tissue post-deploy ([4]; 20 min, hydrophilic coat No, IPA/Water (3.4/1), BHT 5% (PKb)): 218 ± 96 ng sirolimus/mg tissue
Sirolimus conc in artery tissue post-deploy ([4]; 20 min, hydrophilic coat yes, IPA/Water (3.4/1), BHT 0% (PKc)): 219 ± 85 ng sirolimus/mg tissue
Sirolimus conc in artery tissue post-deploy ([4]; 20 min, hydrophilic coat yes, IPA/Water (3.4/1), BHT 5% (Pka)): 313 ± 61 ng sirolimus/mg tissue
Sirolimus conc in artery tissue post-deploy ([4]; 24 hr, hydrophilic coat No, Acetone/ethanol/water (50/40/10), BHT 5% (PKd)): 25 ± 20 ng sirolimus/mg tissue
Sirolimus conc in artery tissue post-deploy ([4]; 24 hr, hydrophilic coat No, IPA/Water (3.4/1), BHT 5% (PKb)): 39 ± 37 ng sirolimus/mg tissue
Sirolimus conc in artery tissue post-deploy ([4]; 24 hr, hydrophilic coat yes, IPA/Water (3.4/1), BHT 0% (PKc)): 16 ± 11 ng sirolimus/mg tissue
Sirolimus conc in artery tissue post-deploy ([4]; 24 hr, hydrophilic coat yes, IPA/Water (3.4/1), BHT 5% (Pka)): 40.7 ± 14.6 ng sirolimus/mg tissue
Sirolimus conc in artery tissue post-deploy ([4]; 8 day, hydrophilic coat No, Acetone/ethanol/water (50/40/10), BHT 5% (PKd)): 21 ± 36 ng sirolimus/mg tissue
Sirolimus conc in artery tissue post-deploy ([4]; 8 day, hydrophilic coat No, IPA/Water (3.4/1), BHT 5% (PKb)): 14 ± 15 ng sirolimus/mg tissue
Sirolimus conc in artery tissue post-deploy ([4]; 8 day, hydrophilic coat yes, IPA/Water (3.4/1), BHT 0% (PKc)): 16 ± 18 ng sirolimus/mg tissue
Sirolimus conc in artery tissue post-deploy ([4]; 8 day, hydrophilic coat yes, IPA/Water (3.4/1), BHT 5% (Pka)): 9.8 ± 10.4 ng sirolimus/mg tissue
Sirolimus conc in artery tissue post-deploy ([4]; 30 day, hydrophilic coat No, Acetone/ethanol/water (50/40/10), BHT 5% (PKd)): 12 ± 18 ng sirolimus/mg tissue
Sirolimus conc in artery tissue post-deploy ([4]; 30 day, hydrophilic coat No, IPA/Water (3.4/1), BHT 5% (PKb)): 5.0 ± 4.8 ng sirolimus/mg tissue
Sirolimus conc in artery tissue post-deploy ([4]; 30 day, hydrophilic coat yes, IPA/Water (3.4/1), BHT 0% (PKc)): 3.2 ± 2.8 ng sirolimus/mg tissue
Sirolimus conc in artery tissue post-deploy ([4]; 30 day, hydrophilic coat yes, IPA/Water (3.4/1), BHT 5% (Pka)): 8.4 ± 5.7 ng sirolimus/mg tissue
